Here are results for twelve compounds from patent publication US20260022143A1, “Cyclic Peptide Inhibitors of IL-23” (JANSSEN PHARMACEUTICA NV, priority 2022, published 2026).

Structures can show the parent of a compound that is named as a salt. Starred links: 1 amine or outer side, 2 acyl side, 3 side chain; linkers in the order of their positions; H or OH if unused. Positions of bridges follow the written chain, without caps; N, C: chain ends. Non-standard residues stand in square brackets, D forms with d. Residues, ends and D or L forms follow the SMILES beside them. Groups on a side chain read outwards from the residue. *: point of attachment. X80 = COCC[N+](C)(C)CCCCc1cn(-c2ccc(C[C@H](N[*:1])C(=O)[*:2])cc2)nn1; X16 = C[N+](C)(C)Cc1cn(-c2ccc(C[C@H](N[*:1])C(=O)[*:2])cc2)nn1; Me3N+(CH2)2O(CH2)2O(CH2)2CO = C[N+](C)(C)CCOCCOCCC(=O)*; CH2CH2OCH2CH2OCH2CH2NMe3+ = C[N+](C)(C)CCOCCOCC*; Trp(7-Me) = Cc1cccc2c(C[C@H](N)C(=O)O)c[nH]c12; Hexanoyl(6-NMe3+) = C[N+](C)(C)CCCCCC(=O)*; Dab(NMeAc) = CC(=O)N(C)CC[C@H](N)C(=O)O; CH2CH2OCH2CH2NMe3+ = C[N+](C)(C)CCOCC*; 2Nal = N[C@@H](Cc1ccc2ccccc2c1)C(=O)O; AEF = NCCOc1ccc(C[C@H](N)C(=O)O)cc1; X19 = C[N+](C)(C)C[C@@H](CC(=O)O)N*; 3Pal = N[C@@H](Cc1cccnc1)C(=O)O; Lys(Me) = CNCCCC[C@H](N)C(=O)O; Agb = N=C(N)NCC[C@H](N)C(=O)O; Pen = CC(C)(S)[C@H](N)C(=O)O; Suc = O=C(CCC(=O)[*:2])[*:1]; Thp = NC1(C(=O)O)CCOCC1; X3 = C[N+](C)(C)CCCCC*; Me2NCH2CH2 = CN(C)CC*; Tfa = O=C(C(F)(F)F)*; Sar = CNCC(=O)O

The first data set is described as follows: Exposed Polar Surface Area (EPSA). Particulars: SFC on Chirex 3014 column; sample 1 mM DMSO stock. In kind it is physicochemical. An outline of the steps: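 EPSA, in Å^2, is read from SFC retention time through a linear relationship established with eight calibration standards. Separation uses a Chirex 3014 stationary phase, 35 °C, 14 MPa back pressure, and a 5–60% methanol/ammonium formate modifier gradient in CO2.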
Regarding `CC(=O)N(C)CCCC[C@@H]1NC(=O)[C@H](Cc2c[nH]c3c(C)cccc23)NC(=O)[C@H]([C@@H](C)O)NC(=O)[C@H](CC(=O)N(C)C)NC(=O)[C@@H](NC(=O)CCOCCOCC[N+](C)(C)C)C(C)(C)SSC(C)(C)[C@@H](C(=O)N[C@@H](Cc2ccc(OCCN)cc2)C(=O)N[C@@H](Cc2ccc3ccccc3c2)C(=O)NC2(C(=O)N[C@@H](CCN(C)C(C)=O)C(=O)N[C@@H](CC(N)=O)C(=O)N[C@@H](Cc3cccnc3)C(=O)N(C)CC(=O)N(C)C)CCC(F)(F)C2)NC1=O` (single isomer, unassigned) [compound 180, cPEG3aCO-Pen(3)-N(N(Me)2)-T-7MeW-K(NMeAc)-Pen(3)-AEF-2Nal-diFCpx-Dab(NMeAc)-N-3Pya-Sar-CON(Me)2], the EPSA was 150.1 Å^2.

Still in this data set, the particulars now being: SFC on Chirex 3014 column; sample 1 mM DMSO stock; read-out: EPSA.
Take `CC(=O)NCCCC[C@@H]1NC(=O)[C@H](Cc2c[nH]c3cccc(C)c23)NC(=O)[C@H]([C@@H](C)O)NC(=O)[C@H](CC(N)=O)NC(=O)[C@@H](NC(C)=O)C(C)(C)SSC(C)(C)[C@@H](C(=O)N[C@@H](Cc2ccc(OCCCCC[N+](C)(C)C)cc2)C(=O)N[C@@H](Cc2ccc3ccccc3c2)C(=O)NC2(C(=O)N[C@@H](CCCCNC(C)=O)C(=O)N[C@@H](CC(N)=O)C(=O)N[C@@H](Cc3cccnc3)C(=O)N(C)CC(N)=O)CCCC2)NC1=O` [compound 537, MeCO-Pen(3)-N-T-7MeW-K(Ac)-Pen(3)-TMAPF-2Nal-Acpx-K(Ac)-N-3Pya-Sar-CONH2]: the EPSA came to 163 A^2.
On to `CC(=O)N[C@@H]1C(=O)N[C@@H](CC(=O)N(C)C)C(=O)N[C@@H]([C@@H](C)O)C(=O)N[C@@H](Cc2c[nH]c3c(C)cccc23)C(=O)N[C@@H](CCCCN(C)C(C)=O)C(=O)N[C@H](C(=O)N[C@@H](Cc2ccc(OCCCCC[N+](C)(C)C)cc2)C(=O)N[C@@H](Cc2ccc3ccccc3c2)C(=O)NC2(C(=O)N[C@@H](COCCOCC[N+](C)(C)C)C(=O)N[C@@H](CC(N)=O)C(=O)N[C@@H](Cc3cccnc3)C(=O)N(C)CC(=O)N(C)C)CCOCC2)C(C)(C)SSC1(C)C` [compound 275, MeCO-Pen(3)-N(N(Me)2)-T-7MeW-K(NMeAc)-Pen(3)-TMAPF-2Nal-THP-APEG2Ser-N-3Pya-Sar-CON(Me)2] (Ac-[Pen]D(NMe2)T[Trp(7-Me)][Lys(Me)](Ac)[Pen]Y(X3)[2Nal][Thp]S(CH2CH2OCH2CH2NMe3+)N[3Pal][Sar]-NMe2; disulfide 1-6), for which the EPSA is 149 A^2.
On the same count and under the same terms, the result for `Cc1cccc2c(C[C@@H]3NC(=O)[C@H]([C@@H](C)O)NC(=O)[C@H](CC(=O)N(C)C)NC(=O)[C@@H](NC(=O)CCCCC[N+](C)(C)C)C(C)(C)SSC(C)(C)[C@@H](C(=O)N[C@@H](Cc4ccc(OCCN(C)C)cc4)C(=O)N[C@@H](Cc4ccc5ccccc5c4)C(=O)NC4(C(=O)N[C@@H](CCC(=O)N(C)C)C(=O)N[C@@H](CC(N)=O)C(=O)N[C@@H](Cc5cccnc5)C(=O)N(C)CC(=O)N(C)C)CCOCC4)NC(=O)[C@H](CCC(=O)N(C)C)NC3=O)c[nH]c12` [compound 91, 5cpaCO-Pen(3)-N(N(Me)2)-T-7MeW-Q(N(Me)2)-Pen(3)-AEF(N(Me)2)-2Nal-THP-Q(N(Me)2)-N-3Pya-Sar-CON(Me)2] ({Hexanoyl(6-NMe3+)}-[Pen]D(NMe2)T[Trp(7-Me)]E(NMe2)[Pen]Y(Me2NCH2CH2)[2Nal][Thp]E(NMe2)N[3Pal][Sar]-NMe2; disulfide 1-6) reads 145 A^2; that for `CC(=O)N(C)CCCC[C@@H]1NC(=O)[C@H](Cc2c[nH]c3c(C)cccc23)NC(=O)[C@H]([C@@H](C)O)NC(=O)[C@H](CC(=O)N(C)C)NC(=O)[C@@H](NC(=O)CCOCCOCC[N+](C)(C)C)C(C)(C)SSC(C)(C)[C@@H](C(=O)N[C@@H](Cc2ccc(OCCOCCOCC[N+](C)(C)C)cc2)C(=O)N[C@@H](Cc2ccc3ccccc3c2)C(=O)NC2(C(=O)N[C@@H](CCCCN(C)C(C)=O)C(=O)N[C@@H](CC(N)=O)C(=O)N[C@@H](Cc3cccnc3)C(=O)N(C)CC(N)=O)CCOCC2)NC1=O` [compound 363, cPEG3aCO-Pen(3)-N(N(Me)2)-T-7MeW-K(NMeAc)-Pen(3)-APEG3F-2Nal-THP-K(NMeAc)-N-3Pya-Sar-CONH2] ({Me3N+(CH2)2O(CH2)2O(CH2)2CO}-[Pen]D(NMe2)T[Trp(7-Me)][Lys(Me)](Ac)[Pen]Y(CH2CH2OCH2CH2OCH2CH2NMe3+)[2Nal][Thp][Lys(Me)](Ac)N[3Pal][Sar]-NH2; disulfide 1-6), 155 A^2; that for `COCC[N+](C)(C)CCCCc1cn(-c2ccc(C[C@H](NC(=O)[C@H]3NC(=O)[C@H](CCCCN(C)C(C)=O)NC(=O)[C@H](Cc4c[nH]c5c(C)cccc45)NC(=O)[C@H]([C@@H](C)O)NC(=O)[C@H](CC(=O)N(C)C)NC(=O)[C@@H](NC(=O)CCOCCOCC[N+](C)(C)C)C(C)(C)SSC3(C)C)C(=O)N[C@@H](Cc3ccc4ccccc4c3)C(=O)NC3(C(=O)N[C@@H](CCCCN(C)C(C)=O)C(=O)N[C@@H](CC(N)=O)C(=O)N[C@@H](Cc4cccnc4)C(=O)N(C)CC(=O)N(C)C)CCOCC3)cc2)nn1` [compound 337, cPEG3aCO-Pen(3)-N(N(Me)2)-T-7MeW-K(NMeAc)-Pen(3)-F(4TzlDMA4mPEG)-2Nal-THP-K(NMeAc)-N-3Pya-Sar-CON(Me)2] ({Me3N+(CH2)2O(CH2)2O(CH2)2CO}-[Pen]D(NMe2)T[Trp(7-Me)][Lys(Me)](Ac)[Pen][X80][2Nal][Thp][Lys(Me)](Ac)N[3Pal][Sar]-NMe2; disulfide 1-6), 152 A^2.
`CC(=O)NCCCC[C@@H]1NC(=O)[C@H](Cc2c[nH]c3c(C)cccc23)NC(=O)[C@H]([C@@H](C)O)NC(=O)[C@H](CC(N)=O)NC(=O)[C@@H](NC(C)=O)C(C)(C)SSC(C)(C)[C@@H](C(=O)N[C@@H](Cc2ccc(-n3cc(C[N+](C)(C)C)nn3)cc2)C(=O)N[C@@H](Cc2ccc3ccccc3c2)C(=O)NC2(C(=O)N[C@@H](CCC(=O)O)C(=O)N[C@@H](CC(N)=O)C(=O)N[C@@H](Cc3cccnc3)C(=O)N(C)CC(N)=O)CCOCC2)NC1=O` [compound 441] (Ac-[Pen]NT[Trp(7-Me)]K(Ac)[Pen][X16][2Nal][Thp]EN[3Pal][Sar]-NH2; disulfide 1-6 (inferred)): the EPSA was 176 A^2.
On the same count and under the same terms, the figure for `CC(=O)NCCCC[C@@H]1NC(=O)[C@H](Cc2c[nH]c3c(C)cccc23)NC(=O)[C@H]([C@@H](C)O)NC(=O)[C@H](CC(N)=O)NC(=O)[C@@H](NC(C)=O)C(C)(C)SSC(C)(C)[C@@H](C(=O)N[C@@H](Cc2ccc(OCC[N+]3(C)CCOCC3)cc2)C(=O)N[C@@H](Cc2ccc3ccccc3c2)C(=O)NC2(C(=O)N[C@@H](CCCCNC(C)=O)C(=O)N[C@@H](CC(N)=O)C(=O)N[C@@H](Cc3cccnc3)C(=O)N(C)CC(N)=O)CCOCC2)NC1=O` [compound 562, MeCO-Pen(3)-N-T-7MeW-K(Ac)-Pen(3)-MMoEF-2Nal-THP-K(Ac)-N-3Pya-Sar-CONH2] is 166 A^2; for `CC(=O)NCCCC[C@H](NC(=O)C1(NC(=O)[C@H](Cc2ccc3ccccc3c2)NC(=O)[C@H](Cc2ccc(OCCN)cc2)NC(=O)[C@H]2NC(=O)[C@H](CCN(C)C(C)=O)NC(=O)[C@H](Cc3c[nH]c4c(C)cccc34)NC(=O)[C@H]([C@@H](C)O)NC(=O)[C@H](CC(N)=O)NC(=O)[C@@H](NC(=O)C(F)(F)F)C(C)(C)SSC2(C)C)CCOCC1)C(=O)N[C@@H](CC(N)=O)C(=O)N[C@@H](Cc1cccnc1)C(=O)N(C)CC(N)=O` [compound 70] (Tfa-[Pen]NT[Trp(7-Me)][Dab(NMeAc)][Pen][AEF][2Nal][Thp]K(Ac)N[3Pal][Sar]-NH2; disulfide 1-6) it is 157 A^2.
The same measure, in the same setting: the figure for `CC(=O)NCCCC[C@@H]1NC(=O)[C@H](Cc2c[nH]c3c(C)cccc23)NC(=O)[C@H]([C@@H](C)O)NC(=O)[C@H](CC(N)=O)NC(=O)[C@@H](NC(=O)[C@@H](CCCCNC(=O)CCC(=O)N[C@H](CC(=O)O)C[N+](C)(C)C)NC(C)=O)C(C)(C)SSC(C)(C)[C@@H](C(=O)N[C@@H](Cc2ccc(OCCN)cc2)C(=O)N[C@@H](Cc2ccc3ccccc3c2)C(=O)NC2(C(=O)N[C@@H](CCCCNC(C)=O)C(=O)N[C@@H](CC(N)=O)C(=O)N[C@@H](Cc3cccnc3)C(=O)N(C)CC(N)=O)CCOCC2)NC1=O` [compound 107] (Ac-[dK]([Suc-X19])[Pen]NT[Trp(7-Me)]K(Ac)[Pen][AEF][2Nal][Thp]K(Ac)N[3Pal][Sar]-NH2; disulfide 2-7) is 173 A^2; for `CC(=O)N(C)CCCC[C@H](NC(=O)[C@H](Cc1c[nH]c2ccccc12)NC(=O)[C@H](Cc1ccc2ccccc2c1)NC(=O)[C@H](Cc1ccc(OCCOCCOCC[N+](C)(C)C)cc1)NC(=O)[C@H]1NC(=O)[C@H](Cc2c[nH]c3ccccc23)NC(=O)[C@H](Cc2c[nH]c3c(C)cccc23)NC(=O)[C@H]([C@@H](C)O)NC(=O)[C@H](Cc2c[nH]c3ccccc23)NC(=O)[C@@H](NC(=O)CCOCCOCC[N+](C)(C)C)C(C)(C)SSC1(C)C)C(=O)N[C@@H](CC(N)=O)C(=O)N[C@@H](Cc1cccnc1)C(=O)N(C)CC(=O)N(C)C` [compound 465, cPEG3aCO-Pen(3)-W-T-7MeW-W-Pen(3)-APEG3f-2Nal-W-K(NMeAc)-N-3Pya-Sar-CON(Me)2] ({Me3N+(CH2)2O(CH2)2O(CH2)2CO}-[Pen]WT[Trp(7-Me)]W[Pen]Y(CH2CH2OCH2CH2OCH2CH2NMe3+)[2Nal]W[Lys(Me)](Ac)N[3Pal][Sar]-NMe2; disulfide 1-6) it is 176 A^2.
The same measure, in the same setting: the figure for `CC(=O)N[C@@H]1C(=O)N[C@@H](CCNC(=N)N)C(=O)N[C@@H]([C@@H](C)O)C(=O)N[C@@H](Cc2c[nH]c3c(C)cccc23)C(=O)N[C@@H](CCCCN(C)C(C)=O)C(=O)N[C@H](C(=O)N[C@@H](Cc2ccc(OCCOCCOCC[N+](C)(C)C)cc2)C(=O)N[C@@H](Cc2ccc3ccccc3c2)C(=O)NC2(C(=O)N[C@@H](CCCCN(C)C(C)=O)C(=O)N[C@@H](CC(N)=O)C(=O)N[C@@H](Cc3cccnc3)C(=O)N(C)CC(=O)N(C)C)CCOCC2)C(C)(C)SSC1(C)C` [compound 412] (Ac-[Pen][Agb]T[Trp(7-Me)][Lys(Me)](Ac)[Pen]Y(CH2CH2OCH2CH2OCH2CH2NMe3+)[2Nal][Thp][Lys(Me)](Ac)N[3Pal][Sar]-NMe2; disulfide 1-6) is 157 A^2.
